Assay results taken from patent publication US12349973B2 (priority 2019, dated 2025).

Tests used:
[1] = tested on: accommodation control system / ciliary body muscarinic receptors; conditions: in vivo
[2] = tested on: pupil light response / muscarinic receptors within the iris; design: species or system human; conditions: in vivo
[3] = tested on: muscarinic receptors within the eye; conditions: in vivo; cited from earlier work
[4] = target: human iris muscarinic receptors; conditions: cited from earlier work

CN(C)CCOC(=O)C(c1ccccc1)C1(O)CCCC1 (stereo not drawn) [cyclopentolate]
ability to accommodate ([1]; human): maintained the ability to accommodate sufficiently to read at 33 cm | mean increase in the AC/A ratio over baseline [1]: 173% | receptoral blockade suggested by AC/A increase [1]: 42%

CN1[C@@H]2CC[C@H]1C[C@@H](OC(=O)C(CO)c1ccccc1)C2 (stereo partly drawn) [atropine]
baseline difference in pupil size [2]: 0.6 mm | estimated level of receptor blockade 1-(V400post/V400pre) [2]: 35% | peak difference in pupil constriction (light response) [2]: 1.6 mm | duration of effects [3]: 6 to 12 days | duration of pupil dilatation and paralysis of accommodation [3]: up to 7 days | apparent dissociation constant KA [4]: 0.4 to 0.7 nM
